Results on seven compounds are retold here after patent US20260191194A1, “OXABICYCLOALKANE COMPOUNDS, PREPARATION METHOD THEREFOR, AND HERBICIDAL COMPOSITION AND USE THEREOF” (QINGDAO KINGAGROOT CHEMICAL COMPOUND CO., LTD., priority 2022, published 2026).

Each structure is given as a SMILES string.

Series [1] has as its system Digitaria ischaemum. The experiment in a line: Activity test of compositions, soil sealing treatment (S). The class given is in vivo. Particulars: A alone 60 g a.i./ha, fresh weight inhibition rate 21 days after treatment. The text has this: (§1) The required active ingredient B was purchased from a reagent company or synthesized by a known method. The technical materials were all dissolved with acetone solvents and diluted with an aqueous solution of 0.1% Tween 80 emulsifier, which were to be used immediately after dilution.
The test soil was quantitatively filled to 3/4 of the pot, and then watered from the bottom of the pot to completely wet the soil to saturation. The test weed seeds were accelerated to just germinate, and then evenly and quantitatively sowed on the soil surface, covered with 0.5-1 cm soil according to the sizes of the seeds, and ready for use 72 hours after sowing.
(§2) Each treatment was repeated 4 times. Four pots with 20 weed seeds sowed per pot were treated each time.
(§3) The well-sowed test materials were evenly placed on a platform with an area of 0.5 m^2, and foliage spraying was carried out by the 3WP-2000-type walking spray tower at a dosage of 450 kg/ha and a spray pressure of 0.3 MPa. After all the solution was sprayed, the air valve was closed, and 30 seconds later, the door of the spray tower was opened, and the nutritional bowl was taken out. Then the air valve was opened, and the spray tube was cleaned by spraying 50 ml of water.
(§4) A method for investigating absolute numbers was employed. Whole seedlings of survival weeds were cut off with a blade along the soil surface, and the fresh weight of the weeds was weighed using an analytical balance. For dead weeds, the fresh weight thereof was zero.
(§5) The investigation was performed 21 days after the treatment for once in total.
(§6) The theoretical fresh weight inhibition rate of a mixed combination of each treatment was calculated by the Gowing method (E0=X+Y−X*Y/100). […] An optimal ratio was determined according to the actual control effects, characteristics of herbicides, and balance of the formulation. In the formula, X represents the fresh weight inhibition rate of the active ingredient A in a dosage of P; Y represents the fresh weight inhibition rate of the active ingredient B in a dosage of Q. The statistical results are shown in Table 4.

The subject of series [2] is Setaria viridis. The experiment in a line: Pre-emergence test experiment. The class given is in vivo. Particulars: activity level, sprayed after sowing, 4 weeks. The text has this:
(§7) Monocotyledonous and dicotyledonous weed seeds as well as major crop seeds (wheat, corn, rice, soybean, peanut, cotton, oilseed rape, millet, and sorghum) were placed in plastic pots filled with soil, and then covered with 0.5-2 cm of soil. The test compounds of the present invention were individually dissolved with acetone, then added with Tween 80, diluted with a certain amount of water to obtain a solution of a certain concentration, and sprayed immediately after sowing. After drug application, cultivation was conducted for 4 weeks in a greenhouse and then the experimental results were observed.

Series [3] deals with Beckmannia syzigachne. The experiment in a line: Pre-emergence test experiment. The class given is in vivo. Particulars: activity level, sprayed after sowing, 4 weeks.
From the text: as §7

Series [4] concerns Oxybasis glauca. As to the kind of experiment: Activity test of compositions, soil sealing treatment (S). Particulars: for Control effect of B applied alone in a corresponding dose: 21 days after treatment. The class given is in vivo. Here is the method: as §1
(§8) Weeds were cultivated in a controllable sunlight greenhouse at 20 to 30° C., in natural light, and with relative humidity of 57% to 72%. […] The test soil was quantitatively filled to 3/4 of the pot, and then watered from the bottom of the pot to completely wet the soil to saturation. The test weed seeds were accelerated to just germinate, and then evenly and quantitatively sowed on the soil surface, covered with 0.5-1 cm soil according to the sizes of the seeds, and ready for use 72 hours after sowing.
as §2, §3, §4, §5, §6

In series [5] the test system is Echinochloa glabrescens. The series is described as above. The class given is in vivo. The following applies: A alone 30 g a.i./ha, fresh weight inhibition rate 21 days after treatment. The procedure:
as §1, §8, §2, §3, §4, §5, §6

Series [6] deals with Cyperus glomeratus. Described as above. The class given is in vivo. Particulars: A alone 30 g a.i./ha, fresh weight inhibition rate 21 days after treatment. The procedure:
as §1, §8, §2, §3, §4, §5, §6

Series [7] concerns Arivela viscosa. Described as above. The class given is in vivo. The following applies: A alone 60 g a.i./ha, fresh weight inhibition rate 21 days after treatment. The procedure: as §1, §8, §2, §3, §4, §5, §6
Series [8] has as its system Echinochloa phyllopogon. The experiment in a line: Weed control effect evaluation in rice fields. The class given is in vivo. Particulars: activity level, 0.5-leaf stage, flooded pot, 14th day, weed resistant to pyrazosulfuron. The text has this: (§9) After rice field soil was loaded into a 1/1,000,000 ha pot, the seeds of Echinochloa crusgalli, Echinochloa phyllopogon, Monochoria vaginalis, Leptochloa chinensis, and Ludwigia prostrata were sowed and gently covered with soil, then left to stand in a greenhouse with water storage of 0.5-1 cm deep. The tuber of Sagittaria trifolia was planted in the next day or 2 days later. The water storage was kept at a depth of 3-4 cm thereafter. When the Echinochloa crusgalli, Echinochloa phyllopogon, and Leptochloa chinensis reached their 0.5-leaf stages and the Sagittaria trifolia reached the time point of the primary leaf stage, WP or SC aqueous dilutions of the compounds of the present invention formulated according to common formulation methods were homogeneously dripped to the specified effective amount using pipettes for treatment.

The test system of series [9] is Echinochloa crusgalli. The experiment in a line: Weed control effect evaluation in rice fields. The class given is in vivo. The following applies: activity level, 0.5-leaf stage, flooded pot, 14th day, weed resistant to pyrazosulfuron.
From the text: as §9

The test system of series [10] is Echinochloa crus-galli var. austrojaponensis. As to the kind of experiment: Activity test of compositions, early post-emergence foliage spray (F-EP). The following applies: fresh weight inhibition rate 21 days after treatment. The class given is in vivo. Here is the method: as §1
(§10) Weeds were cultivated by a pot culture method. […] Weed seeds with plump and uniform grains were selected, soaked in lukewarm water at 25° C. for 6 hours, and accelerated to germinate in a 28° C. biochemical incubator (in darkness). The weed seeds that had just germinated were evenly placed on the surface of the soil and then covered with 0.5-1 cm soil according to the sizes of seeds.
(§11) The culture was carried out in a controllable sunlight greenhouse at 20 to 30° C., in natural light, and with relative humidity of 57% to 72%.
as §2
(§12) The agents were used once in total in the experiment. In the stage of 1-2 leaves, the weeds were thinned out to maintain 10 strains per treatment for later use.
(§13) The well-cultured test materials were evenly placed on a platform with an area of 0.5 m^2, and foliage spraying was carried out by the 3WP-2000-type walking spray tower at a dosage of 450 kg/ha and a spray pressure of 0.3 MPa. After all the solution was sprayed, the air valve was closed, and 30 seconds later, the door of the spray tower was opened, and the nutritional bowl was taken out. Then the air valve was opened, and the spray tube was cleaned by spraying 50 ml of water. The test materials were transferred to and routinely cultured in a greenhouse after the treatment.
as §4, §5, §6

Series [11] has as its system Soliva anthemifolia. The series is described as above. The class given is in vivo. Particulars: A alone 60 g a.i./ha, fresh weight inhibition rate 21 days after treatment. Here is the method:
as §1, §10, §11, §2, §12, §13, §4, §5, §6

For series [12], the system named is Echinochloa glabrescens. The description is as above. The class given is in vivo. The following applies: A alone 30 g a.i./ha, fresh weight inhibition rate 21 days after treatment. Here is the method:
as §1, §10, §11, §2, §12, §13, §4, §5, §6

The test system of series [13] is Cyperus glomeratus. The series is described as above. The class given is in vivo. Particulars: for Control effect of B applied alone in a corresponding dose: 21 days after treatment. Here is the method: as §1, §10, §11, §2, §12, §13, §4, §5, §6
Series [14] concerns Rice. The following applies: japonica, in vivo, 7 days.
Experimental: In addition, after being loaded into the 1/1,000,000 ha pot, the rice field soil was leveled to keep the water storage at a depth of 2-3 cm. The rice (japonica rice) at 3-leaf stage was transplanted at a transplanting depth of 2-3 cm the next day. The compounds of the present invention were treated in the same manner as above on the 3rd day after the transplantation.
The effects were evaluated according to the above-mentioned activity level criteria.
Series [15] deals with Soybean. The following applies: in vivo, 4 weeks.
From the text: as §7

The test system of series [16] is Corn. Particulars: in vivo, 4 weeks.
From the text: as §7

Series [17] concerns Cotton. The following applies: in vivo, 4 weeks.
From the text: as §7

The subject of series [18] is Peanut. The following applies: in vivo, 4 weeks.
From the text: as §7

Series [19] relates to Lolium perenne. The experiment in a line: Pre-emergence test experiment. Particulars: activity level (fresh weight growth control rate), sprayed after sowing, 4 weeks. The class given is in vivo.
From the text: as §7

The subject of series [20] is Direct sowing rice. Particulars: in vivo, 7 days.
Experimental: To simulate a field of direct sowing rice, a 5-cm water layer was added to the container first, fully mixed with mud to form slurry, and then rice seeds were scattered in. After the slurry became clear, the water layer was removed. The soil was kept moist and applied with drug solution evenly by spraying. The soil was rehydrated to 3-cm deep 3-4 days after drug application.
The doses of the compounds used in the above-mentioned experiments were 3.75, 7.5, 15, 30, 60, and 120 g a.i./ha. […] The effects were evaluated according to the above-mentioned activity level criteria.
Series [21] relates to Wheat. Particulars: in vivo.
From the text: as §7

With `CC(C)C12CCC(C)(O1)C(OCc1c(F)cccc1Br)C2` (racemic) [Compound 1], the “Control effect of A applied alone in a corresponding dose (%)” value in series [1] is on record as 56.4%; in series [4] (A alone 60 g a.i./ha, fresh weight inhibition rate 21 days after treatment) it was 19.8%; in [5], 58.3%; in series [6] it was 56.1%; in [7], 18.5%; in [10] (A alone 30 g a.i./ha) it was 38.4%. In addition, the “Control effect of A applied alone in a corresponding dose (%)” value in [10] (A alone 60 g a.i./ha) was found to be 52.7%; in [11], 22.8%; in series [12] it was 48.7%; in [13] (A alone 30 g a.i./ha, fresh weight inhibition rate 21 days after treatment), 51.5%. Further, in [2], the “Setaria viridis 30 g a.i./ha” value came to 9. In [3], the “Beckmannia syzigachne 60 g a.i./ha” value turned out to be 9. Moreover, in series [8], the “Echinochloa phyllopogon 7.5 g a.i./ha” value was 9. Further, in series [9], the “Echinochloa crusgalli 7.5 g a.i./ha” value was found to be 9. Further, in series [14], the “Rice 30 g a.i./ha” value came to 0. For the same compound, the “Soybean 60 g a.i./ha” value in series [15] worked out at 0. Further, the “Corn 60 g a.i./ha” value in series [16] was determined as 0. Also, in series [17], the “Cotton 60 g a.i./ha” value is 0. In series [18], the “Peanut 60 g a.i./ha” value is 0.

Turning to `CC(C)C12CCC(C)(O1)C(OCc1ccccc1Br)C2` (stereo not drawn) [Control compound A], the “Lolium perenne 30 g a.i./ha” value in series [19] is reported as 1 (Level 1: growth control rate is less than 10%).

Take `CC(C)C12CCC(C)(O1)C(OCc1c(F)cccc1Cl)C2` (stereo not drawn) [Control compound C]: the “Direct sowing rice 60 g a.i./ha” value in series [20] was determined as 9. In addition, the “Rice 60 g a.i./ha” value in [14] is 9. For the same compound, in [21], the phytotoxicity to wheat entry is “unacceptable phytotoxicity”.

With `CC(C)N1C(=O)c2ccccc2NS1(=O)=O` [bentazone], the “Control effect of B applied alone in a corresponding dose” value (shortened to “Control effect of B applied alone”) in series [13] (B alone 300 g a.i./ha) was 43.8.

As to `C#CCN1C(=O)COc2cc(F)c(N3C(=O)C4=C(CCCC4)C3=O)cc21` [flumioxazin], the “Control effect of B applied alone” value in [4] (B alone 30 g a.i./ha) is 55.6.

Take `CCC(=O)Nc1ccc(Cl)c(Cl)c1` [propanil]: in series [13] (B alone 900 g a.i./ha), the “Control effect of B applied alone” value was 19.7.

As to `COC(=O)c1sccc1S(=O)(=O)NC(=O)Nc1nc(C)nc(OC)n1` [thifensulfuronmethyl, thifensulfuron-methyl], in [4] (B alone 7.5 g a.i./ha), the “Control effect of B applied alone” value was 68.6.
